Results reported in ChEMBL document CHEMBL1129683, “Thermodynamic aspects of hydrophobicity and the blood-brain barrier permeability studied with a gel filtration chromatography” (J Med Chem, 1996).

Assay: Micelle/water partition coefficient (Pmic) of the compound was determined
Assay type: physicochemical
Details: buffer

| SMILES | Log Pmic |
| --- | --- |
| NC(N)=O [UREA] | -0.12 |
| CNC(=O)c1cccnc1 [NICOTINYL METHYLAMIDE] | 0.39 |
| NC(N)=S [THIOUREA] | 0.48 |
| O=c1[nH]cc(F)c(=O)[nH]1 [FLUOROURACIL] | 0.21 |
| COc1cccc2c1C(=O)c1c(O)c3c(c(O)c1C2=O)C[C@@](O)(C(=O)CO)C[C@@H]3O[C@H]1C[C@H](N)[C@H](O)[C@H](C)O1 [DOXORUBICIN] | 1.9 |
| O=c1[nH]c(=O)n(C2CCCO2)cc1F (configuration not stated) [TEGAFUR] | 0.7 |
| CCc1nc(N)nc(N)c1-c1ccc(Cl)cc1 [PYRIMETHAMINE] | 2.51 |
| CC[C@]1(O)C[C@H]2CN(CCc3c([nH]c4ccccc34)[C@@](C(=O)OC)(c3cc4c(cc3OC)N(C=O)[C@H]3[C@@](O)(C(=O)OC)[C@H](OC(C)=O)[C@]5(CC)C=CCN6CC[C@]43[C@@H]65)C2)C1 [VINCRISTINE] | 2.48 |
| CN1CC(=O)NC1=N [CREATININE] | -0.3 |
| Cc1cc(=O)n(-c2ccccc2)n1C [ANTIPYRINE] | 0.58 |
| NC=O [FORMAMIDE] | -0.35 |
| Cc1ncc([N+](=O)[O-])n1CCO [METRONIDAZOLE] | 0.54 |
